Assays:
[1] = Half life period was evaluated.; type: ADME
[2] = Percentage Bioavailability was evaluated.; type: ADME, organism-based; conditions: in vivo; read-out: Bioavailabiility
MT2 = assay: Compound was evaluated for accumulation of viral RNA transcripts three days after infection of MT-2 cells with HIV-1 RF; type: functional; conditions: Homo sapiens, MT2, 72 h
[3] = Maximum concentration of compound in rat was evaluated.; type: ADME, organism-based; conditions: in vivo
[4] = Maximum concentration of compound in dog was evaluated.; type: ADME, organism-based, Canis lupus familiaris; conditions: in vivo
[5] = molecular target: Human immunodeficiency virus type 1 protease (Human immunodeficiency virus 1, UniProt Q72874); assay: The compound was evaluated for inhibition of HIV protease
[6] = Ratio of -logKi with respect to inhibition was evaluated; type: functional

Row | Compound | half-life [1] | bioavailability [2] | IC90 (MT2) | Cmax [3] | Cmax [4] | Ki [5] | Ratio [6]
1 | O=C1N(Cc2ccc3[nH]ncc3c2)[C@H](Cc2ccccc2)[C@H](O)[C@@H](O)[C@@H](Cc2ccccc2)N1Cc1ccc2[nH]ncc2c1 | 2 h | 13% | 8 nM | 30 nM | 1000 nM | – | –
2 | O=C1N(Cc2ccc3[nH]nc(NCC4CC4)c3c2)[C@H](Cc2ccccc2)[C@H](O)[C@@H](O)[C@@H](Cc2ccccc2)N1Cc1ccc2[nH]nc(NCC3CC3)c2c1 | – | – | 38 nM | – | – | 0.34 nM | 2.1
3 | Nc1[nH]nc2ccc(CN3C(=O)N(Cc4ccc5n[nH]c(N)c5c4)[C@H](Cc4ccccc4)[C@H](O)[C@@H](O)[C@H]3Cc3ccccc3)cc12 | – | – | 2760 nM | – | – | – | 5.4
4 | O=C1N(Cc2ccc3[nH]c(O)nc3c2)[C@H](Cc2ccccc2)[C@H](O)[C@@H](O)[C@@H](Cc2ccccc2)N1Cc1ccc2[nH]c(O)nc2c1 | – | – | > 65000 nM | – | – | < 0.01 nM | –
5 | O=C1N(Cc2ccc3[nH]nc(N4CCCC4)c3c2)[C@H](Cc2ccccc2)[C@H](O)[C@@H](O)[C@@H](Cc2ccccc2)N1Cc1ccc2[nH]nc(N3CCCC3)c2c1 | – | – | 120 nM | – | – | 1.3 nM | 2
6 | CCCNc1[nH]nc2ccc(CN3C(=O)N(Cc4ccc5n[nH]c(NCCC)c5c4)[C@H](Cc4ccccc4)[C@H](O)[C@@H](O)[C@H]3Cc3ccccc3)cc12 | – | – | 40 nM | – | – | 0.23 nM | 2.2
7 | CNc1[nH]nc2ccc(CN3C(=O)N(Cc4ccc5n[nH]c(NC)c5c4)[C@H](Cc4ccccc4)[C@H](O)[C@@H](O)[C@H]3Cc3ccccc3)cc12 | – | – | 279 nM | – | – | 0.018 nM | 4.2
8 | CCNc1[nH]nc2ccc(CN3C(=O)N(Cc4ccc5n[nH]c(NCC)c5c4)[C@H](Cc4ccccc4)[C@H](O)[C@@H](O)[C@H]3Cc3ccccc3)cc12 | – | – | 65 nM | – | – | 0.041 nM | 3.2
9 | Nc1n[nH]c2ccc(CN3C(=O)N(Cc4ccc5[nH]nc(N)c5c4)[C@H](Cc4ccccc4)[C@H](O)[C@@H](O)[C@H]3Cc3ccccc3)cc12 | – | – | – | – | – | < 0.01 nM | –
10 | CC(C)Nc1[nH]nc2ccc(CN3C(=O)N(Cc4ccc5n[nH]c(NC(C)C)c5c4)[C@H](Cc4ccccc4)[C@H](O)[C@@H](O)[C@H]3Cc3ccccc3)cc12 | – | – | 24 nM | – | – | 0.09 nM | 2.4
